Results from patent US20220251640A1, “METHODS OF DETERMINATION OF GENOME ARCHITECTURE AND EPIGENETIC PROFILE” (THE BROAD INSTITUTE, INC., priority 2019, published 2022).
Entries after “also recorded” stand apart in the source; their conditions may differ.

Assays:
GM12878 cells = experiment: Hi-Culfite on GM12878 cells treated with 5-azacytidine (methylation inhibition experiment); format: cell-based, human; conditions: for CpG C->T conversion: DMSO control 45.37%
From the text: (§1) Hi-Culfite library construction (FIG. 1A) followed the initial steps of an in situ Hi-C protocol (8). One million cells were crosslinked with formaldehyde; chromatin was digested with a restriction enzyme; and the overhangs were filled in, incorporating a biotinylated nucleotide to mark the fragment ends after ligation. The DNA was then purified and sheared. Next, Applicants performed bisulfite conversion, which converted unmethylated cytosine residues into uracil but left methylated cytosine residues intact. Applicants captured the resulting single-stranded, biotin-marked ligation products on streptavidin beads. Finally, Applicants added adapters to the 3′ end, synthesized the second strand by primer extension, ligated adapters to the 3′ end of the 2nd strand, and PCR amplified with indexed primers.
(§2) Cell Culture: All commercial cell lines were cultured following vendors' recommendations to about 80% confluency before they were harvested and cross-linked in fresh complete medium. For methylation inhibition experiments, cultures of GM12878 (Coriell Institute) and Hap1 (Horizon) were grown for 8 days in medium supplemented with DMSO without drug or with 1 μM or 5 μM 5-azacytidine (Sigma Aldrich) solubilized in DMSO, refreshing the medium/drug every two days.
(§3) Library Construction: Hi-C libraries were prepared using the protocol described (8) Briefly, one million cells were crosslinked with 1% formaldehyde for 10 minutes at room temperature and then quenched with 0.2 M glycine solution. Cells were lysed and nuclei permeabilized with 0.5% SDS for 10 minutes at 62° C. Chromatin was digested with 100 U of MboI restriction enzyme (NEB). Ends of the restriction fragments were filled-in and labeled with a biotinylated nucleotide and then ligated. Nuclei were pelleted, proteins were digested with proteinase K, and crosslinks were reversed by heating at 68° C. overnight. DNA was sheared in a Covaris focused ultrasonicator to a length of 300-500 bp. Size-selected DNA was split for processing with two workflows—10% of the material was used for preparation of a regular Hi-C library (unconverted control) and 90% of the DNA was used for Hi-Culfite library construction. Hi-C libraries were finished by enriching for biotinylated ligation junctions through binding to T1 streptavidin beads (Thermo Fisher) and preparing the library for Illumina sequencing performing the end-repair, A-tailing and adapter ligation steps with DNA attached to the beads. Libraries were amplified directly off the beads and purified for subsequent Illumina sequencing.
(§4) DNA for Hi-Culfite was first treated with sodium bisulfite using EpiTect Fast bisulfite conversion kit (Qiagen) following the kit's instructions and extending each of the two 60° C. conversion incubations to 20 minutes. Converted DNA was purified without addition of an RNA carrier to the binding buffer. Biotinylated ligation junctions in purified bisulfite-converted DNA were captured on 15 μl C1 streptavidin beads (Thermo Fisher) in denaturing binding buffer (10 mM Tris pH 7.5; 5 mM EDTA; 500 mM LiCl; 0.5% Igepal CA630; 0.2% SDS; 4 M Urea) for 10 minutes at 55° C. DNA was washed twice with binding buffer at 55° C. and once with 10 mM Tris. Beads were resuspended in 15 μl of 10 mM Tris, and libraries were detached from the beads by heating for 5 minutes at 95° C. After separating on a magnet, library construction for Illumina sequencing was performed on the supernatant containing ssDNA library using Accel-NGS Methyl-Seq kit (Swift Biosciences) following the kit's manual.
Methylation Track Generation with MethylDackel: Duplicate Hi-C contacts were marked as duplicates in the methylation BAM. Applicants then called the program Methyl Dackel extract with the flag “-F 1024”; this ignored duplicates reads but kept all other mapped reads with MAPQ ≥10. MethylDackel generated CpG methylation tracks, a cytosine coverage report, and an input file for the analysis program MethylKit26. […]

Hap1 cells = experiment: Hi-Culfite on Hap1 cells treated with 5-azacytidine (methylation inhibition experiment); format: cell-based; conditions: for CpG C->T conversion: DMSO control 37.66%
From the text: as §1, §2, §3
as §4, with “Beads were resuspended in 15 μl of 10 mM Tris, and libraries were detached from the beads by heating for 5 minutes at 95° C. After separating on a magnet, library construction for Illumina sequencing was performed on the supernatant containing ssDNA library using Accel-NGS Methyl-Seq kit (Swift Biosciences) following the kit's manual.” left out
Methylation Track Generation with MethylDackel: Duplicate Hi-C contacts were marked as duplicates in the methylation BAM. Applicants then called the program Methyl Dackel extract with the flag “-F 1024”; this ignored duplicates reads but kept all other mapped reads with MAPQ ≥10. […]

Nc1ncn([C@@H]2O[C@H](CO)[C@@H](O)[C@H]2O)c(=O)n1 [5-azacytidine]
CpG C->T conversion (GM12878 cells; GM12878, 1 μM 5-azacytidine in DMSO, 8 days): 69.46%
impact on nuclear architecture / chromosome-level nuclear organization (contact maps, eigenvectors) (GM12878 cells; GM12878, 1 uM and 5 uM, 8 days, vs DMSO): did not discern an impact on nuclear architecture; also recorded: no effect on chromosome-level nuclear organization
CpG C->T conversion (GM12878 cells; GM12878, 5 μM 5-azacytidine in DMSO, 8 days): 75.08%
looping signal by Aggregate Peak Analysis (GM12878 cells; GM12878, increasing 5-azacytidine concentration): no significant changes in looping signal
genome-wide decline of methylation (on average) (GM12878 cells; GM12878 treated with 5-azacytidine, average stated jointly for GM12878 and HapI): 2 fold
nucleosome occupancy and directional methylation asymmetry at CTCF motifs (aggregate methylation analysis) (GM12878 cells; increasing concentration of 5-azacytidine, GM12878 CTCF motifs): no changes to nucleosome occupancy and directional methylation asymmetry
impact on nuclear architecture / chromosome-level nuclear organization (contact maps, eigenvectors) (Hap1 cells; Hap1, 1 uM and 5 uM, 8 days, vs DMSO): did not discern an impact on nuclear architecture; also recorded: no effect on chromosome-level nuclear organization
CpG C->T conversion (Hap1 cells; Hap-1, 1 μM 5-azacytidine in DMSO, 8 days): 86.16%
CpG C->T conversion (Hap1 cells; Hap-1, 5 μM 5-azacytidine in DMSO, 8 days): 85.79%
genome-wide decline of methylation (on average) (Hap1 cells; HapI treated with 5-azacytidine, average stated jointly for GM12878 and HapI): 2 fold
looping signal by Aggregate Peak Analysis (Hap1 cells; HapI, increasing 5-azacytidine concentration): no significant changes in looping signal
